# Patent US8802664B2 (Bioproject, priority 2010, dated 2014)
# Where a name gives a salt, the structure may show the parent alone.
row,SMILES,melting point [°C]
1,CCOCCn1c(C(OC2CCN(C)CC2)c2cccc(C#CCCCCN)c2)nc2ccccc21 (stereo not shown) (as salt: oxalate) [Example 500],103
2,"CN1CCC(OC(c2cccc(OCCCCN3CCCCC3)c2)c2nc3ccccc3[nH]2)CC1 (stereo not shown) (as salt: oxalate) [Example 333, 2-{(1-methylpiperidin-4-yloxy)[3-(4-piperidin-1-yl-butoxy)phenyl]methyl}-1H-benzimidazole]",130
3,"CN1CCC(OC(c2cccc(SCCCCCN)c2)c2nc3ccccc3[nH]2)CC1 (stereo not shown) (as salt: oxalate) [Example 381, 5-{3-[(1H-benzimidazol-2-yl)(1-methylpiperidin-4-yloxy)methyl]phenylsulfanyl}pentylamine]",140
4,"CN1CCC(OC(c2cccc(OCCCCCNCCCCN)c2)c2nc3ccccc3[nH]2)CC1 (stereo not shown) (as salt: oxalate) [Example 419, N1-(5-{3-[(1H-benzimidazol-2-yl)(1-methylpiperidin-4-yloxy)methyl]phenoxy}pentyl)butane-1,4-diamine]",162
5,CN1CCC(OC(c2nc3cc(F)ccc3[nH]2)c2cc(OC(F)(F)F)ccc2F)CC1 (stereo not shown) (as salt: oxalate) [Example 509],70
6,COc1ccc(F)c(C(OC2CCN(C)CC2)c2nc3ccccc3[nH]2)c1 (stereo not shown) (as salt: oxalate) [Example 486],105
7,"CN1CCC(NC(c2cccc(OCCOc3ccccc3)c2)c2nc3ccccc3[nH]2)CC1 (stereo not shown) (as salt: oxalate) [Example 106, {(1H-benzimidazol-2-yl)[3-(2-phenoxyethoxy)phenyl]methyl}(1-methylpiperidin-4-yl)amine]",140
8,"CN1CCC(NC(c2cccc(OCC3CCCCC3)c2)c2nc3ccccc3s2)CC1 (stereo not shown) (as salt: oxalate) [Example 93, [benzothiazol-2-yl(3-cyclohexylmethoxyphenyl)methyl](1-methylpiperidin-4-yl)amine]",98
9,"CN1CCC(NC(c2cccc(OCCCC3(C)OCCO3)c2)c2nc3ccccc3[nH]2)CC1 (stereo not shown) (as salt: oxalate) [Example 174, ((1H-benzimidazol-2-yl)-{3-[3-(2-methyl-[1,3]dioxolan-2-yl)-propoxy]phenyl}methyl)(1-methylpiperidin-4-yl)amine]",120
10,"CN1CCC(OC(c2ccc(Cl)cc2)c2nc3ccccc3[nH]2)CC1 (stereo not shown) (as salt: oxalate) [Example 226, 2-[(4-chlorophenyl)(1-methylpiperidin-4-yloxy)methyl]-1H-benzimidazole]",175
11,"CN1CCC(OC(c2cccc(-c3ccccc3CO)c2)c2nc3ccccc3s2)CC1 (stereo not shown) (as salt: oxalate) [Example 127, {3′-[benzothiazol-2-yl(1-methylpiperidin-4-yloxy)methyl]biphenyl-2-yl}methanol]",206 to 207
12,CN1CCC(COC(c2cccc(C#CCCCN)c2)c2nc3cc(F)ccc3[nH]2)C1 (stereo not shown) (as salt: oxalate) [Example 462],200
13,"CC(C)Oc1cccc(C(NC2CCN(C)CC2)c2nc3ccccc3s2)c1 (stereo not shown) (as salt: oxalate) [Example 88, [benzothiazol-2-yl(3-isopropoxyphenyl)methyl](1-methylpiperidin-4-yl)amine]",96
14,"CN1CCC(OC(c2cccc(OCCCCCNCC(=O)OC(C)(C)C)c2)c2nc3ccccc3s2)CC1 (stereo not shown) (as salt: oxalate) [Example 375, (5-{3-[benzothiazol-2-yl(1-methylpiperidin-4-yloxy)methyl]phenoxy}pentylamino)acetic acid tert-butyl ester]",99
15,"CN1CCC(OC(c2cccc(OCc3ccccc3)c2)c2nc3ccccc3s2)CC1 (stereo not shown) (as salt: oxalate) [Example 45, 2-[(3-benzyloxyphenyl)(1-methylpiperidin-4-yloxy)methyl]benzothiazole]",52
16,"CN1CCC(OC(c2nc3ccccc3[nH]2)c2cc(C#CCCCCN)ccc2F)CC1 (stereo not shown) (as salt: oxalate) [Example 557, 6-{3-[(1H-benzimidazol-2-yl)(1-methylpiperidin-4-yloxy)methyl]-4-fluorophenyl}hex-5-ynylamine]",195
17,CN1CCC(OC(c2cc(C(F)(F)F)cc(C(F)(F)F)c2)c2nc3ccccc3[nH]2)CC1 (stereo not shown) (as salt: oxalate) [Example 547],130
18,"CN1CCC(OC(c2cccc(C(=O)N(C)Cc3ccccc3)c2)c2nc3ccccc3s2)CC1 (stereo not shown) (as salt: oxalate) [Example 219, 3-[benzothiazol-2-yl(1-methylpiperidin-4-yloxy)methyl]-N-benzyl-N-methylbenzamide]",103
19,"CN1CCC(OC(c2cccc(OCCN3CCN(C(=O)OC(C)(C)C)CC3)c2)c2nc3ccccc3s2)CC1 (stereo not shown) (as salt: oxalate) [Example 329, 4-(2-{3-[benzothiazol-2-yl(1-methylpiperidin-4-yloxy)methyl]phenoxy}ethyl)piperazine-1-carboxylic acid tert-butyl ester]",90
20,"CCSc1cc(C(OC2CCN(C)CC2)c2nc3ccccc3[nH]2)ccc1C (stereo not shown) (as salt: oxalate) [Example 274, 2-[(3-ethylsulfanyl-4-methylphenyl)(1-methylpiperidin-4-yloxy)methyl]-1H-benzimidazole]",142
21,"CN1CCC(OC(c2cccc(OCc3cccc(F)c3)c2)c2nc3ccccc3s2)CC1 (stereo not shown) (as salt: oxalate) [Example 171, 2-[[3-(3-fluorobenzyloxy)phenyl](1-methylpiperidin-4-yloxy)methyl]benzothiazole]",65
22,"CN1CCC(OC(c2cccc(Oc3cccnc3)c2)c2nc3ccccc3s2)CC1 (stereo not shown) (as salt: oxalate) [Example 448, 2-{(1-methylpiperidin-4-yloxy)[3-(pyridin-3-yloxy)phenyl]methyl}benzothiazole]",78
23,"CN1CCC(OC(c2cccc(-c3ccc(Cl)c(Cl)c3)c2)c2nc3ccccc3[nH]2)CC1 (stereo not shown) (as salt: oxalate) [Example 122, 2-[(3′,4′-dichlorobiphenyl-3-yl)(1-methylpiperidin-4-yloxy)methyl]-1H-benzimidazole]",150

# Now from value to compound:
row,melting point [°C],SMILES
1,175,"Cc1ccc2sc(C(OC3CCN(C)CC3)c3ccccc3)nc2c1 (stereo not shown) (as salt: oxalate) [Example 29, 5-methyl-2-[(1-methylpiperidin-4-yloxy)phenylmethyl]benzothiazole]"
2,76,"CN1CCC(OC(c2cccc(N3CCCC3CO)c2)c2nc3ccccc3s2)CC1 (stereo not shown) (as salt: oxalate) [Example 323, (1-{3-[benzothiazol-2-yl(1-methylpiperidin-4-yloxy)methyl]phenyl}pyrrolidin-2-yl)methanol]"
3,70,CN1CCC(OC(c2cccc(OC3CC4CNCC4C3)c2)c2nc3ccccc3s2)CC1 (stereo not shown) (as salt: oxalate) [Example 466]
4,75,"C=CCCCOc1cccc(C(OC2CCN(C)CC2)c2nc3ccccc3s2)c1 (stereo not shown) (as salt: oxalate) [Example 168, 2-[(1-methylpiperidin-4-yloxy)(3-pent-4-enyloxy-phenyl)methyl]benzothiazole]"
5,101,"CN1CCC(OC(c2cccc(OCC3CCCCC3)c2)c2nc3ccccc3s2)CC1 (stereo not shown) (as salt: oxalate) [Example 285, 2-[(3-Cyclohexylmethoxyphenyl)(1-methylpiperidin-4-yloxy)methyl]benzothiazole]"
6,80,"CN1CCC(OC(c2cccc(CCc3cn(C)cn3)c2)c2nc3ccccc3s2)CC1 (stereo not shown) (as salt: oxalate) [Example 306, 2-[{3-[2-(1-methyl-1H-imidazol-4-yl)ethyl]phenyl}(1-methylpiperidin-4-yloxy)methyl]benzothiazole]"
7,80,"CN1CCC(OC(c2cccc(SC(C)(C)CCO)c2)c2nc3ccccc3s2)CC1 (stereo not shown) (as salt: oxalate) [Example 242, 3-{3-[benzothiazol-2-yl(1-methylpiperidin-4-yloxy)methyl]phenylsulfanyl}-3-methyl-butan-1-ol]"
8,70,"CN1CCC(OC(c2cccc(OCCCl)c2)c2nc3ccccc3s2)CC1 (stereo not shown) (as salt: oxalate) [Example 354, 2-[[3-(2-Chloroethoxy)phenyl](1-methylpiperidin-4-yloxy)methyl]benzothiazole]"
9,145,CN1CCC(OC(c2cccc(N3CCCC3CN)c2)c2nc3ccccc3s2)CC1 (stereo not shown) (as salt: oxalate) [Example 482]
10,201,"CN1CCC(OC(c2cccc(SCCCCCN)c2)c2nc3ccccc3s2)CC1 (stereo not shown) (as salt: oxalate) [Example 305, 5-{3-[benzothiazol-2-yl(1-methylpiperidin-4-yloxy)methyl]phenylsulfanyl}pentylamine]"
11,106,CN1CCC(OC(c2cccc(N3CCC(N(C)C)C3)c2)c2nc3ccccc3s2)CC1 (stereo not shown) (as salt: oxalate) [Example 484]
12,95,CN1CCC(OC(c2cccc(OC3CCC(N)CC3)c2)c2nc3ccccc3s2)CC1 (stereo not shown) (as salt: oxalate) [Example 477]
13,84,"CCOc1cccc(C(OC2CCN(C)CC2)c2nc3ccccc3s2)c1 (stereo not shown) (as salt: oxalate) [Example 47, 2-[(3-ethoxyphenyl)(1-methylpiperidin-4-yloxy)methyl]benzothiazole]"
14,68,"CC(C)Oc1cccc(C(OC2CCN(C)CC2)c2nc3ccccc3s2)c1 (stereo not shown) (as salt: oxalate) [Example 55, 2-[(3-isopropoxyphenyl)(1-methylpiperidin-4-yloxy)methyl]benzothiazole]"
15,89,"CSCCOc1cccc(C(OC2CCN(C)CC2)c2nc3ccccc3s2)c1 (stereo not shown) (as salt: oxalate) [Example 250, 2-{(1-methylpiperidin-4-yloxy)[3-(2-methylsulfanyl-ethoxy)phenyl]methyl}benzothiazole]"
16,89,"CN1CCC(OC(c2cccc(-n3cccn3)c2)c2nc3ccccc3s2)CC1 (stereo not shown) (as salt: oxalate) [Example 147, 2-[(1-methylpiperidin-4-yloxy)(3-pyrazol-1-ylphenyl)methyl]benzothiazole]"
17,163,"CN1CCC(OC(c2nc3ccccc3s2)c2ccccc2Cl)CC1 (stereo not shown) (as salt: oxalate) [Example 281, 2-[(2-Chlorophenyl)(1-methylpiperidin-4-yloxy)methyl]benzothiazole]"
